For 101 compounds, cytotoxicity results are on record in ChEMBL document CHEMBL3507680, “University of Dundee, Gates Library screen for HepG2 cell viability”.

A short description of this series: Human HepG2 cell viability assay in 384 well format. Type of series: toxicity, cell-based. Also noted: dose 125 nL, time 70.5 hour; cytotoxicity at 70.5 h: concentration not given beside the values. As to conditions: HepG2 cells, read-out: Inhibition.

Regarding `O=c1ccc(-n2cccn2)nn1CCNS(=O)(=O)c1ccc(F)c(Cl)c1`, the cytotoxicity at 70.5 h is 2.64%. On to `O=c1ccc(-n2ccnc2)nn1CCNS(=O)(=O)c1ccc(Cl)s1`, for which the cytotoxicity at 70.5 h was found to be 3.04%. As for `O=c1ccc(-n2ccnc2)nn1CCNS(=O)(=O)c1ccccc1Cl`, the figure is -1.86%. As to `COc1ccc(-n2nnc(C(=O)NCC3CCCCC3)n2)cc1`, the cytotoxicity at 70.5 h was -12.2%. For `NC(=O)c1nnn(-c2ccc(Cl)cc2)n1`, the cytotoxicity at 70.5 h is -5.31%.

On to `O=C(c1nnn(-c2ccc(C(F)(F)F)cc2)n1)N1CC(O)C1`, for which the cytotoxicity at 70.5 h was -8.07%. For the compound `CN(C)C(=O)c1nnn(-c2ccc(Br)cc2)n1`, the cytotoxicity at 70.5 h came to 28.4%. Turning to `Cc1nccn1-c1ccc(C(=O)NCC(F)(F)F)nn1`, the cytotoxicity at 70.5 h was -1.99%. As for `COc1ccccc1C(O)Cn1cc(C(=O)NCc2ccco2)nn1` (stereo unspecified), the cytotoxicity at 70.5 h was 0.751%. With `CC(C)NC(=O)NCCn1nc(C(F)(F)F)n(C)c1=O`, the cytotoxicity at 70.5 h was -4.05%.

In the case of `Cc1ccccc1NC(=O)NCCn1nc(C(F)(F)F)n(C)c1=O`, the cytotoxicity at 70.5 h was -2.02%. The figure for `O=C(CN1CCC(c2nnc(C(F)(F)F)o2)CC1)Nc1cccnc1` is -3.9%; for `O=C(CN1CCC(c2nnc(C(F)(F)F)o2)CC1)NCc1ccccc1` it is -0.907%; for `O=C(c1nnn(-c2ccccc2F)c1-c1ccccn1)N1CCSCC1` it is -0.794%.

On to `COC(=O)N1CCc2ccccc2C1C(=O)NCC(F)(F)F` (stereo unspecified), for which the cytotoxicity at 70.5 h was -5.95%. For `O=C(NC1CCN(c2ccc(-c3ccccc3F)nn2)C1)c1ccc[nH]1` (stereo unspecified), the cytotoxicity at 70.5 h amounted to 10.6%. With `O=C(NC1CCN(c2ccc(-c3ccccc3F)nn2)C1)C1CCC1` (stereo unspecified), the cytotoxicity at 70.5 h was found to be 1.72%. For `Cc1noc(-c2ccc(N3CCCC(C(N)=O)C3)nc2)n1` (stereo unspecified), the cytotoxicity at 70.5 h was -0.883%. With `CN1CCN(c2cc(NC(=O)Cn3ccc4ccccc43)ncn2)CC1`, the cytotoxicity at 70.5 h came to 1.47%. As for `O=C(Nc1cc(N2CCOCC2)ncn1)c1cnccn1`, the figure is -3.66%.

As to `CCOc1ccc(NC(=O)Nc2cc(N3CCCCC3)ncn2)cc1`, the cytotoxicity at 70.5 h was -1.28%. On to `O=C(Cc1c(F)cccc1Cl)Nc1cc(N2CCCC2)ncn1`, for which the cytotoxicity at 70.5 h was -2.78%.

On to `COc1ncccc1C(=O)NCCn1cnc(C)cc1=O`, for which the cytotoxicity at 70.5 h is -2.32%. Take `COc1ccc(S(=O)(=O)NCCn2cnc(C)cc2=O)cc1C`: the cytotoxicity at 70.5 h was -9.08%. On to `O=C(NCCn1cnc(C2CCCC2)cc1=O)c1ccc(=O)[nH]n1`, for which the cytotoxicity at 70.5 h was -0.636%. The figure for `CC(C)NC(=O)NCCn1cnc(C2CCCC2)cc1=O` is -6.52%; for `Cc1ccc(NC(=O)NCCn2cnc(C)c(C)c2=O)cc1F` it is -1.25%. As for `Cc1ncn(CCNC(=O)Nc2ccc(OC(F)(F)F)cc2)c(=O)c1C`, the figure is -3.32%; as for `Cn1nc(N2CCCC(C(=O)Nc3nc4ccccc4[nH]3)C2)ccc1=O` (stereo unspecified), -10%. Turning to `COc1cc(NC(=O)C2CC(=O)N(c3cccc(F)c3)C2)ncn1` (stereo unspecified), the cytotoxicity at 70.5 h was -3.43%.

For `COc1cccc2sc(N3CC(OC(C)=O)C3)nc12`, the cytotoxicity at 70.5 h is -11.2%. For `COC(=O)c1ccc(S(=O)(=O)NCC(O)c2sccc2C)cc1` (stereo unspecified), the cytotoxicity at 70.5 h was -2.62%. On to `COCC(C)(O)CNC(=O)c1cc(-c2ccc(F)cc2)nn1C` (stereo unspecified), for which the cytotoxicity at 70.5 h stood at 1.82%. Consider `COC(=O)c1ccc(S(=O)(=O)NCC(C)(O)c2cccs2)cc1` (stereo unspecified), for which the cytotoxicity at 70.5 h was -9.34%. As to `O=C1CCSCC(C(=O)N2CCC(O)CC2)N1` (stereo unspecified), the cytotoxicity at 70.5 h is -10.8%.

In the case of `O=C1CCSCC(C(=O)N2CCC3(CC2)OCCO3)N1` (stereo unspecified), the cytotoxicity at 70.5 h is -14.2%. For `Cc1csc(NC(=O)C2CSCCC(=O)N2)n1` (stereo unspecified), the cytotoxicity at 70.5 h is -0.709%. Turning to `CNC(=O)Cc1csc(NC(=O)C2CSCCC(=O)N2)n1` (stereo unspecified), the cytotoxicity at 70.5 h was determined as 14.7%. On to `Cn1nnc2c(N3CC(C(=O)NCc4ccccc4F)C3)ncnc21`, for which the cytotoxicity at 70.5 h was -8.25%. As for `CCCc1nnsc1C(=O)NCC(O)c1ccoc1` (stereo unspecified), the figure is -11.2%; as for `O=C(NCC(O)c1ccoc1)Nc1cccs1` (stereo unspecified), -6.41%. Regarding `O=C(NCC(O)c1ccoc1)Nc1c(F)cccc1F` (stereo unspecified), the cytotoxicity at 70.5 h was -9.03%. Regarding `CCOc1ccccc1C(=O)NCCc1ccoc1`, the cytotoxicity at 70.5 h is -13.5%. As for `COC(=O)c1sccc1S(=O)(=O)NCCc1ccoc1`, the figure is -5.25%; as for `O=C(c1ccc2[nH]cnc2c1)N1CCC(Oc2ccccn2)CC1`, 1.58%. As for `CN1CCCC(C(=O)N2CCC(Oc3ccccn3)CC2)C1` (stereo unspecified), the cytotoxicity at 70.5 h is -7.47%. For the compound `Cc1noc(C)c1S(=O)(=O)N1CCC(Oc2ccccn2)CC1`, the cytotoxicity at 70.5 h was 10%. Turning to `CCOC(=O)N1CCC(Oc2ccc(C(F)(F)F)cn2)CC1`, the cytotoxicity at 70.5 h was -7.88%. For `O=C(Cn1cccn1)N1CCC(Oc2ccc(C(F)(F)F)cn2)CC1`, the cytotoxicity at 70.5 h is -0.904%.

On to `CN(CC(=O)N1CCC(Oc2ccc(C(F)(F)F)cn2)CC1)S(C)(=O)=O`, for which the cytotoxicity at 70.5 h is 0.51%. With `O=C(CCn1ccc(=O)[nH]c1=O)N1CCC(Oc2ncccc2Cl)CC1`, the cytotoxicity at 70.5 h is -6.14%. As to `O=C(NCc1ccccc1)N1CCC(Oc2ncccc2Cl)CC1`, the cytotoxicity at 70.5 h amounted to 11%. Turning to `O=S(=O)(c1cc(F)cc(F)c1)N1CCC(Oc2ccc(Cl)cn2)CC1`, the cytotoxicity at 70.5 h is 2%.

Turning to `N#Cc1cccnc1OC1CCN(C(=O)NCc2ccccc2)CC1`, the cytotoxicity at 70.5 h was -4.78%. Consider `N#Cc1cccnc1OC1CCN(S(=O)(=O)c2c(F)cccc2F)CC1`, for which the cytotoxicity at 70.5 h was 39.9%. On to `N#Cc1ccc(OC2CCN(C(=O)c3ccccc3Cl)CC2)nc1`, for which the cytotoxicity at 70.5 h was -5.83%. Regarding `CN1CCCC(C(=O)N2CCC(Oc3ncccn3)CC2)C1` (stereo unspecified), the cytotoxicity at 70.5 h was -4.47%.

On to `Cc1noc(C)c1S(=O)(=O)N1CCC(Oc2cccnn2)CC1`, for which the cytotoxicity at 70.5 h was -0.269%.

As to `O=C(c1cc(C2CC2)on1)N1CCC(Oc2ncccc2Br)CC1`, the cytotoxicity at 70.5 h is -13.4%. `CC(=O)Nc1cnc(Oc2ccccc2F)nc1`: the cytotoxicity at 70.5 h is -5.65%. With `O=C(c1ccccn1)N1CCN(c2ccc(-n3cccc3)nn2)CC1`, the cytotoxicity at 70.5 h is -4.16%. Consider `COCC(=O)N1CCN(c2cc(-n3cccc3)nc(C)n2)CC1`, for which the cytotoxicity at 70.5 h came out at 5.98%.

For the compound `Cc1nc(N2CCN(C(=O)c3cccs3)CC2)cc(-n2cccc2)n1`, the cytotoxicity at 70.5 h was 1.27%. As for `Cc1nc(N2CCN(C(=O)c3cccnc3)CC2)cc(-n2cccc2)n1`, the figure is 4.9%; as for `Cc1cncc(C(=O)N2CCCC3(CCCN3S(C)(=O)=O)C2)c1` (stereo unspecified), -8.81%.

Take `Cc1cc(C(=O)NCc2ccnc(N3CCN(C)CC3)c2)sc1C`: the cytotoxicity at 70.5 h stood at 20.5%. Take `Cc1ccsc1C(=O)NCc1ccnc(N2CCN(C)CC2)c1`: the cytotoxicity at 70.5 h was -8.63%. Consider `Cc1cc(C(=O)NCc2ccnc(N3CCN(C)CC3)c2)no1`, for which the cytotoxicity at 70.5 h is -0.337%. For `CN1CCN(c2cc(CNC(=O)c3cccnc3O)ccn2)CC1`, the cytotoxicity at 70.5 h is -1.85%. As for `Cc1nc2cc(=O)[nH]n2c(C)c1CC(=O)NCCCc1ccccc1`, the figure is -4.06%. As for `NC(=O)Cn1cc(NC(=O)N2CCCC(O)C2)cn1` (stereo unspecified), the cytotoxicity at 70.5 h was -4.87%. As for `CCCc1noc(C(C)N2CCN(Cc3nc(C)c(C)o3)CC2)n1` (stereo unspecified), the figure is 0.969%; as for `Cc1cc(CNC(=O)Cc2c(C)nc3cc(=O)[nH]n3c2C)no1`, -4.77%; as for `Cc1cnn(CC2CN(CC(=O)Nc3cc(C)on3)CCO2)c1` (stereo unspecified), -5.06%. For the compound `CCc1ccc(C(=O)N2CCCN(Cc3nccn3CC)CC2)s1`, the cytotoxicity at 70.5 h turned out to be 14%. On to `CCC(O)CN1CCN(C(=O)Cc2ccccc2Cl)CC1` (stereo unspecified), for which the cytotoxicity at 70.5 h was -0.929%. `CCn1ccnc1CN1CCCN(C(=O)c2cc[nH]n2)CC1`: the cytotoxicity at 70.5 h came out at 0.0306%.

For `CC(O)CN1CCN(C(=O)Cc2ccccc2Cl)CC1` (stereo unspecified), the cytotoxicity at 70.5 h was -5.1%. As to `CC(C)Cn1cc(NC(=O)N2CCCC2)cn1`, the cytotoxicity at 70.5 h was 0.273%. With `CCc1n[nH]c(C2CN(C(=O)CCc3cscn3)CCO2)n1` (stereo unspecified), the cytotoxicity at 70.5 h amounted to 1.24%. In the case of `CCc1ocnc1C(=O)N1CCCC(n2nc(C)nc2C)C1` (stereo unspecified), the cytotoxicity at 70.5 h was found to be 5.06%. `CC(C)c1n[nH]c(C2CN(C(=O)CCc3cscn3)CCO2)n1` (stereo unspecified): the cytotoxicity at 70.5 h worked out at 13.2%. In the case of `Cc1cc(C(=O)NCc2ccc(N3CCN(C)CC3)nc2)c(C)s1`, the cytotoxicity at 70.5 h was -12.2%. On to `CCn1ccnc1CN1CCCN(C(=O)c2cc(C)nn2CC)CC1`, for which the cytotoxicity at 70.5 h turned out to be 3.88%. Take `CCc1noc(C)c1C(=O)N1CCCC(n2nc(C)nc2C)C1` (stereo unspecified): the cytotoxicity at 70.5 h is -2.69%. Turning to `Cc1cc(C)n(CC2CCCCN2CCc2ccncc2)n1` (stereo unspecified), the cytotoxicity at 70.5 h turned out to be 4.66%. On to `Cc1ccc(NC2CCN(C(=O)c3cncnc3C)CC2)nn1`, for which the cytotoxicity at 70.5 h turned out to be 14.7%. In the case of `COc1cccc(CNCc2c(C(C)C)nn(C)c2N(C)C)c1`, the cytotoxicity at 70.5 h was 1.8%.

For `COc1cc(CNCCc2cnn(C)c2)cc2c1OCO2`, the cytotoxicity at 70.5 h was -8.59%. On to `Cc1cc(C)c(CNC(=O)NCCC2CCCO2)c(=O)[nH]1` (stereo unspecified), for which the cytotoxicity at 70.5 h was -2.77%. For `O=C(NCc1cccnc1)Nc1cc(C(F)(F)F)c[nH]c1=O`, the cytotoxicity at 70.5 h is -9.57%. Consider `COc1ccc(OC)c(CNCc2c(C(C)C)nn(C)c2N(C)C)c1`, for which the cytotoxicity at 70.5 h is -3.06%.

With `Cc1cc(CN2CCOC(Cn3nc(C)cc3C)C2)on1` (stereo unspecified), the cytotoxicity at 70.5 h is -5.48%. As for `O=C(c1cccnc1N1CCOCC1)N1CCCC(n2cccn2)C1` (stereo unspecified), the cytotoxicity at 70.5 h is -5.6%. With `Cc1nnc2n1CCN(C(=O)c1cc(Br)c[nH]1)C2`, the cytotoxicity at 70.5 h is -5.46%. Regarding `Cc1csc(NC(=O)CN2CCCC(Cn3nc(C)nc3C)C2)n1` (stereo unspecified), the cytotoxicity at 70.5 h was -7.51%. As for `Cc1cc(C)c(CNC(=O)CC2CCCO2)c(=O)[nH]1` (stereo unspecified), the cytotoxicity at 70.5 h is -3.05%. On to `Cc1ccc(NC2CCN(C(=O)c3ccoc3C)CC2)nn1`, for which the cytotoxicity at 70.5 h was -0.801%. On to `Cc1noc(C)c1C(=O)N1CCC(Nc2cccnn2)CC1`, for which the cytotoxicity at 70.5 h stood at 0.523%.

Take `CC(C)(C)c1cccc(OCC(=O)NS(=O)(=O)c2cccnc2)c1`: the cytotoxicity at 70.5 h was 21.7%. For the compound `COc1ccc(OCCNCc2c(C)nn(C)c2N(C)C)cc1`, the cytotoxicity at 70.5 h stood at 31.1%.
